Experiments:
Tau-BiFC cells = assay: Cell viability (cytotoxicity) in tau-BiFC cells, count of stained nuclei; type: cell-based; conditions: Forskolin-only group = 100% cell viability; for Cell viability: compounds marked *: measured at 3 μM
In short: (§1)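 Tau-BiFC cells were exposed for 48 h to compound (1, 3, 10 μM for screening; 0.03–30 μM for dose-response) plus 30 μM Forskolin to induce aggregation. BiFC fluorescence was normalised to Forskolin-only minus untreated controls, with IC50 from nonlinear regression. Viability was Hoechst-stained nuclei counts relative to Forskolin-only wells.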

[1] = Liver microsome stability; type: in vitro ADME, human; conditions: amount of substrate remaining; compound 1 μM, 30 minutes, 37° C., NADPH
Method: (§2) The stability of liver microsomes due to the compounds prepared according to Examples 1 to 175 was confirmed. Specifically, four types of liver microsomes (human, dog, rat, and mouse, each 0.25 mg/mL), a 0.1 M phosphate buffer solution (pH 7.4), and each of the compounds at a concentration of 1 μM were mixed and pre-cultured at 37° C. for 5 minutes and further cultured at 37° C. for 30 minutes together with an NADPH generation system solution added thereto. Thereafter, the reaction was terminated by adding an acetonitrile solution containing an internal standard material (chloropropamide) and centrifuged for 5 minutes (14,000 rpm, 4° C.), and then a supernatant was injected into an LC-MS/MS system for analysis of substrate drugs to thereby evaluate metabolic stability due to 8 types of compounds.
(§3) The amount of the substrate remaining after the reaction was analyzed using the Shimadzu Nexera XR system and TSQ Vantage (Thermo). In an HPLC column, Kinetex XB-C18 (2.1 mm×100 mm, particle size of 2.6 μm; Phenomenex, USA) was used, and mobile phases were (A) distilled water containing 0.1% formic acid and (B) acetonitrile containing 0.1% formic acid. Analyst software (version 1.6.3) and Xcalibur (version 1.6.1) were used for data analysis.

[2] = Liver microsome stability; type: in vitro ADME, rat; conditions: amount of substrate remaining; compound 1 μM, 30 minutes, 37° C., NADPH
Method: as §2, §3

tau protein = biological target: T1, tau protein (Homo sapiens, UniProt P10636); assay: Tau-BiFC cell model: inhibition of tau protein aggregation; type: cell-based; conditions: for remaining activity at 3 µM: compounds marked *: measured at 3 μM, read-out: Response; for IC50: Tau BiFC in cells, with Forskolin 30 μM, 48 hours
T1 construct: fused on or other part: Split fluorescent-protein halves for BiFC are fused to tau; In the published tau-BiFC line these are Venus VN173 and VC155
In short: as §1

[3] = Liver microsome stability; type: in vitro ADME, mouse; conditions: amount of substrate remaining; compound 1 μM, 30 minutes, 37° C., NADPH
Method: as §2, §3

[4] = 48 h, Forskolin-only group = 100% tau protein-aggregated state

T1 sequence (P10636 2-441 isoform P10636-8 limits assumed): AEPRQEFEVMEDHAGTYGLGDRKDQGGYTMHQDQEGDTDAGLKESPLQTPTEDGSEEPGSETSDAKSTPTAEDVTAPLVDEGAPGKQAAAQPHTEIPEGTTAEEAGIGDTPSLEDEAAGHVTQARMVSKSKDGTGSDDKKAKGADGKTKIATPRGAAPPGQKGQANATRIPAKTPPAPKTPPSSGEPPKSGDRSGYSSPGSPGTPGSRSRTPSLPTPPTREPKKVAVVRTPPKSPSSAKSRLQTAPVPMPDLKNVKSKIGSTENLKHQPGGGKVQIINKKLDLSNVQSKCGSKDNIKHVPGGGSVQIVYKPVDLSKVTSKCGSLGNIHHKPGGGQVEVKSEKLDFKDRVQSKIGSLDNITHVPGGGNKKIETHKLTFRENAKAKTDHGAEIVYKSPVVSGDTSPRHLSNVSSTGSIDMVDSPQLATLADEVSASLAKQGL

| Compound | Cell viability (Tau-BiFC cells) [%] | Human (%) [1] [%] | Rat (%) [2] [%] | remaining activity at 3 µM (tau protein; [4]) [%] | IC50 (tau protein) [nM] | Mouse (%) [3] [%] | Cell viability (% @10 μM) (Tau-BiFC cells; compound 10 μM) [%] | remaining activity at 10 µM (tau protein; 48 h, compound 10 μM, BiFC fluorescence, Forskolin-only group = 100% tau protein-aggregated state, read-out: Response (% @10 μM)) [%] |
| --- | --- | --- | --- | --- | --- | --- | --- | --- |
| Cc1cnc(COc2ccc(NN=C(C#N)C#N)cc2C)cn1 [Compound 147, (3-methyl-4-((5-methylpyrazin-2-yl)methoxy)phenyl)carbonohydrazonoyl dicyanide] | 98 | 86.4 | 89 | -19 | 147 | 91.3 |  |  |
| COc1cc(NN=C(C#N)C#N)ccc1OCc1cccnn1 [Compound 164, (3-methoxy-4-(pyridazin-3-ylmethoxy)phenyl)carbonohydrazonoyl dicyanide] | 109 | 96.8 | 29.1 | -1 | 96 | 24.6 |  |  |
| COc1cc(NN=C(C#N)C#N)ccc1OCc1nc2ccccc2o1 [Compound 166, (4-(benzo[d]oxazol-2-ylmethoxy)-3-methoxyphenyl)carbonohydrazonoyl dicyanide] | 121 | 6.6 | 6.5 | -43 | 214 | 68.1 |  |  |
| Cc1cc(NN=C(C#N)C#N)ccc1OCc1cc2ccccc2s1 [Compound 150, (4-(benzo[b]thiophen-2-ylmethoxy)-3-methylphenyl)carbonohydrazonoyl dicyanide] | 118 | 80.7 | 78.7 | 11 |  | 99.5 |  |  |
| N#CC(C#N)=NNc1ccc(NC(=O)c2nc3ccccc3s2)nc1 [Compound 31, (6-(benzo[d]thiazole-2-carboxamido)pyridin-3-yl)carbonohydrazonoyl dicyanide] |  | 28.7 |  |  | 540 |  | 114.3 | 0 |
| COc1cc(NN=C(C#N)C#N)ccc1OCc1cccs1 [Compound 172, (3-methoxy-4-(thiophen-2-ylmethoxy)phenyl)carbonohydrazonoyl dicyanide] |  | 73.3 | 65.3 |  |  | 57.3 |  |  |
| COc1cc(NN=C(C#N)C#N)ccc1OCc1nc2ccccc2s1 [Compound 165, (4-(benzo[d]thiazol-2-ylmethoxy)-3-methoxyphenyl)carbonohydrazonoyl dicyanide] | 113 | 42.4 | 42.4 | -40 |  | 69.6 |  |  |
| COc1cc(NN=C(C#N)C#N)ccc1OCc1cc2ccccc2s1 [Compound 158, (4-(benzo[b]thiophen-2-ylmethoxy)-3-methoxyphenyl)carbonohydrazonoyl dicyanide] | 96 | 36.9 | 48.2 | -33 | 268 | 73.7 |  |  |
| COc1cc(NN=C(C#N)C#N)ccc1OCc1cc[nH]n1 [Compound 168, (4-((1H-pyrazol-3-yl)methoxy)-3-methoxyphenyl)carbonohydrazonoyl dicyanide] | 123 | 54.8 | 44 | -17 | 132 | 77.8 |  |  |
| COc1cc(NN=C(C#N)C#N)ccc1OCc1csc(C)n1 [Compound 171, (3-methoxy-4-((2-methylthiazol-4-yl)methoxy)phenyl)carbonohydrazonoyl dicyanide] |  | 79.2 | 80.3 |  |  | 70.3 |  |  |
| Cc1cc(NN=C(C#N)C#N)ccc1OCc1ccc(C(F)(F)F)cc1 [Compound 148, (3-methyl-4-(4-(trifluoromethyl)benzyloxy)phenyl)carbonohydrazonoyl dicyanide] | 114 | 77.4 | 86.3 | 22 |  | >100 |  |  |
| COc1cc(NN=C(C#N)C#N)ccc1OCc1cnn(C)c1 [Compound 174, (3-methoxy-4-((1-methyl-1H-pyrazol-4-yl)methoxy)phenyl)carbonohydrazonoyl dicyanide] |  | 72 | 54.3 |  |  | >100 |  |  |
| COc1cc(NN=C(C#N)C#N)ccc1OCc1nc2ccccc2[nH]1 [Compound 163, (4-((1H-benzo[d]imidazol-2-yl)methoxy)-3-methoxyphenyl)carbonohydrazonoyl dicyanide] | 106 | 86.9 | 71.3 | 91 |  | 59.5 |  |  |
| Cc1cc(NN=C(C#N)C#N)ccc1OCc1cccnn1 [Compound 149, (3-methyl-4-(pyridazin-3-ylmethoxy)phenyl)carbonohydrazonoyl dicyanide] | 124 | 93.7 | 82.2 | -8 | 185 | 87.9 |  |  |
| Cc1cc(NN=C(C#N)C#N)ccc1OCc1nc2ccccc2s1 [Compound 157, (4-(benzo[d]thiazol-2-ylmethoxy)-3-methylphenyl)carbonohydrazonoyl dicyanide] | 124 | 69.1 | 46 | 8 |  | 33.2 |  |  |
| COc1cc(NN=C(C#N)C#N)ccc1OCc1ccc(C(F)(F)F)cc1 [Compound 155, (3-methoxy-4-(4-(trifluoromethyl)benzyloxy)phenyl)carbonohydrazonoyl dicyanide] | 80 | 95.4 | 82 | -43 |  | 90.8 |  |  |

From patent publication US12649723B2, “Carbonohydrazonoyl dicyanide compounds comprising 2 or more aryl or heteroaryl connected via linker and use thereof” (KOREA INSTITUTE OF SCIENCE AND TECHNOLOGY, priority 2020, dated 2026)
